# Results from publication PMC6792352, “Limited Chemical Structural Diversity Found to Modulate Thyroid Hormone Receptor in the Tox21 Chemical Library” (Environmental Health Perspectives, 2019).
# Counter-ions that a name gives are not always drawn. Non-standard residues stand in square brackets, D forms with d. Residues, ends and D or L forms follow the SMILES beside them. Orn = NCCC[C@H](N)C(=O)O
# Assay: in vitro
# Details: rat, gh3-tre-luc cells, AC50 (uM) modified / 1000
row,SMILES,CC50 at 24 h
1,CC(=O)c1ccc(OCC(=O)N2CCCCC2)cc1 [4'-Piperidinylcarbonylmethoxyacetophenone],> 50 µM
2,C[C@]12C=CC(=O)C=C1CC[C@@H]1[C@@H]2[C@@H](O)C[C@@]2(C)[C@H]1CC[C@]2(O)C(=O)CO [Prednisolone],> 90 µM
3,CN1CCN(CC/C=C2/c3ccccc3Sc3ccc(S(=O)(=O)N(C)C)cc32)CC1 [Thiothixene],10.7 µM
4,C=CC(=O)OCCCCCCCC(C)C [Isodecyl acrylate],> 90 µM
5,CC1(C)[C@@H](OC(=O)CCC(=O)O)CC[C@]2(C)[C@H]3C(=O)C=C4[C@@H]5C[C@@](C)(C(=O)O)CC[C@]5(C)CC[C@@]4(C)[C@]3(C)CC[C@@H]12 [Carbenoxolone sodium],> 20 µM
6,CC(=O)NNC(C)=O [Diacetyl hydrazine],> 90 µM
7,CC(C)S [Isopropyl mercaptan],> 90 µM
8,CC(=O)OCC(=O)[C@@]1(O)CC[C@H]2[C@@H]3CCC4=CC(=O)CC[C@]4(C)[C@H]3[C@@H](O)C[C@@]21C [Hydrocortisone acetate],> 50 µM
9,C#CC(C)N(C)C(=O)Nc1ccc(Cl)cc1 (centres unmarked) [Buturon],> 90 µM
10,CC(=O)OC1CC(C)OC(C)O1 (centres unmarked) [Dimethoxane],> 90 µM
11,COc1ccc(C[C@@H]2c3cc(OC)c(OC)cc3CC[N@+]2(C)CCC(=O)OCCCCCOC(=O)CC[N@@+]2(C)CCc3cc(OC)c(OC)cc3[C@H]2Cc2ccc(OC)c(OC)c2)cc1OC [Atracurium besylate],> 20 µM
12,O=C(O)c1cc2ccccc2cc1O [3-Hydroxy-2-naphthoic acid],> 90 µM
13,O=C(CCCCC(=O)Nc1c(I)cc(I)c(C(=O)O)c1I)Nc1c(I)cc(I)c(C(=O)O)c1I [Iodipamide],> 50 µM
14,CC(=O)OCC1=C(C(=O)O)N2C(=O)[C@@H](NC(=O)Cc3ccccc3)[C@H]2SC1 [Cefaloram],> 50 µM
15,CC(=O)N1C[C@H](O)C[C@H]1C(=O)O [Oxaceprol],> 50 µM
16,O=C(O)CN(CC(=O)O)CC(=O)O [Nitrilotriacetic acid],> 90 µM
17,COc1c(O)cc2c(c1O)[C@@H]1O[C@H](CO)[C@@H](O)[C@H](O)[C@H]1OC2=O [Bergenin monohydrate],> 20 µM
18,C=C1CC/C=C(\C)CC[C@@H]2[C@@H]1CC2(C)C [beta-Caryophyllene],> 90 µM
19,"C[C@@H]1CC[C@H]2C(C)(C)C3CC12CC[C@@]3(C)O (single isomer, unassigned; (+)) [(+)-Cedrol]",71.6 µM
20,"C1CC(COCC2CO2)CCC1COCC1CO1 (centres unmarked) [2,2'-[Cyclohexane-1,4-diylbis(methanediyloxymethanediyl)]dioxirane]",59.2 µM
21,CCC(=O)OC(=O)CC [Propanoic anhydride],> 90 µM
22,"N#CC(Br)(Br)C(N)=O [2,2-Dibromo-3-nitrilopropionamide]",> 90 µM

row,SMILES,CC50 at 24 h
1,C[C@H](N)C(=O)N[C@@H](C)P(=O)(O)O [Alafosfalin],> 50 µM
2,CC(C)C[C@H]1C(=O)N2CCC[C@H]2[C@]2(O)O[C@](NC(=O)[C@@H]3C=C4c5cccc6[nH]c(Br)c(c56)C[C@H]4N(C)C3)(C(C)C)C(=O)N12 [Bromocriptine],> 50 µM
3,CCN(CC)CCn1c(=O)c(Cc2ccc(OC)cc2)nc2ccccc21 [Caroverine hydrochloride],19.1 µM
4,CN(C)CCCNCCCN [Dimethyldipropylenetriamine],> 90 µM
5,O=C1OC(=O)c2c(Br)c(Br)c(Br)c(Br)c21 [Tetrabromophthalic anhydride],> 90 µM
6,CC(C)(C)OC(=O)N1CC(N)C1 [Lithium sulfate],> 5 µM
7,CCCCCCCCCCCCCCCCCCCl [Octadecyl chloride],> 5 µM
8,O=C(/C=C/c1ccc(O)c(O)c1)O[C@@H]1C[C@](O)(C(=O)O)C[C@@H](O)[C@H]1O [Chlorogenic acid],> 90 µM
9,C[C@H](N[C@@H](CCc1ccccc1)C(=O)O)C(=O)N1CCC[C@H]1C(=O)O [Enalapril acid],> 50 µM
10,CN(C)C(=O)Nc1ccc(Cl)cc1 [Monuron],> 90 µM
11,C=C[C@H]1C[N@@]2CC[C@H]1C[C@@H]2[C@@H](O)c1ccnc2ccccc12 [Cinchonine],> 50 µM
12,OC1CCCCC1 [Cyclohexanol],> 100 µM
13,NC(=O)N1c2ccccc2C=Cc2ccccc21 [Carbamazepine],> 90 µM
14,NC(=O)c1ccccc1[N+](=O)[O-] [2-Nitrobenzamide],> 90 µM
15,CC(C)CN(C[C@@H](OP(=O)(O)O)[C@H](Cc1ccccc1)NC(=O)O[C@H]1CCOC1)S(=O)(=O)c1ccc(N)cc1 [Fosamprenavir calcium],> 50 µM
16,CCCCC(CC)COP(=O)(O)OCC(CC)CCCC (centres unmarked) [Bis(2-ethylhexyl) phosphate],63.4 µM
17,CC(C(=O)O)c1ccc2c(c1)CC(=O)c1ccccc1S2 (centres unmarked) [Zaltoprofen],> 50 µM
18,CCCCCCCCCCCCCO [1-Tridecanol],> 90 µM
19,"C=CCc1cc(S(=O)(=O)c2ccc(O)c(CC=C)c2)ccc1O [4,4'-Sulfonylbis[2-(prop-2-en-1-yl)phenol]]",49.1 µM
20,NCCN1CCNC1=O [1-(2-Aminoethyl)imidazolidin-2-one],> 90 µM
21,C/C(=C(\CCOC(=O)c1ccccc1)SS/C(CCOC(=O)c1ccccc1)=C(/C)N(C=O)Cc1cnc(C)nc1N)N(C=O)Cc1cnc(C)nc1N [Bisbentiamine],25.6 µM
22,NC(=O)N1c2ccccc2CC(=O)c2ccccc21 [Oxcarbazepine],14.5 µM

row,SMILES,CC50 at 24 h
1,Cc1c(C(=O)c2c[nH]n(C)c2=O)ccc(S(C)(=O)=O)c1C1=NOCC1 [Topramezone],> 40 µM
2,COCN(COC)c1nc(N(COC)COC)nc(N(COC)COC)n1 [Hexa(methoxymethyl)melamine],> 90 µM
3,CCN(CC)CCOc1ccc2c(c1)C(=O)c1cc(OCCN(CC)CC)ccc1-2 [Tilorone],> 50 µM
4,CCCCCC(C)N (centres unmarked) [2-Aminoheptane sulfate],> 50 µM
5,CCCCN(CCCC)C(=S)SSC(=S)N(CCCC)CCCC [Tetrabutylthiuram disulfide],> 90 µM
6,Cc1c(F)c(N2CCNC(C)C2)cc2c1c(=O)c(C(=O)O)cn2C1CC1 (centres unmarked) [Grepafloxacin hydrochloride],> 50 µM
7,C[C@H]1CC[C@]2(NC1)O[C@H]1C[C@H]3[C@@H]4CC[C@H]5C[C@@H](O)CC[C@]5(C)[C@H]4CC[C@]3(C)[C@H]1[C@@H]2C [Tomatidine hydrochloride],47 µM
8,Cc1ccccc1OCC1CO1 (centres unmarked) [o-Cresyl glycidyl ether],> 90 µM
9,CC1COC(=O)O1 (centres unmarked) [Propylene carbonate],> 90 µM
10,O=C(Nc1ccc(Br)cc1)c1cc(Br)c(Br)s1 [Tibrofan],19.8 µM
11,CCOCCOCCOCCO [2-[2-(2-Ethoxyethoxy)ethoxy]ethanol],> 90 µM
12,CCNc1nc(Cl)nc(NCC)n1 [Simazine],> 90 µM
13,CCNS(=O)(=O)C(F)(F)C(F)(F)C(F)(F)C(F)(F)C(F)(F)C(F)(F)C(F)(F)C(F)(F)F [N-Ethylperfluorooctanesulfonamide],> 90 µM
14,CCCCN(CCCC)CCCC [Tributylamine],> 90 µM
15,CCCNC(=O)NS(=O)(=O)c1ccc(Cl)cc1 [Chlorpropamide],> 90 µM
16,COc1c(C)c2c(c(O)c1C/C=C(\C)CCC(=O)OCCN1CCOCC1)C(=O)OC2 [Mycophenolate mofetil],1.07 µM
17,CC(C)(C)C(=O)OCC(=O)[C@H]1CC[C@H]2[C@@H]3CCC4=CC(=O)CC[C@]4(C)[C@H]3CC[C@]12C [Desoxycorticosterone pivalate],> 50 µM
18,CC(C)C[C@@H]1NC(=O)[C@H](CCCN)NC(=O)[C@H](C(C)C)NC(=O)[C@@H]2CCCN2C(=O)[C@@H](Cc2ccccc2)NC(=O)[C@H](CC(C)C)NC(=O)[C@H](CCCN)NC(=O)[C@H](C(C)C)NC(=O)[C@@H]2CCCN2C(=O)[C@@H](Cc2ccccc2)NC1=O [Gramicidin S] (cyclo(L[dF]PV[Orn]L[dF]PV[Orn])),3.05 µM
19,CCc1cccc(C)c1N [2-Ethyl-6-methylaniline],> 90 µM
20,CCCC(=O)OCC [Ethyl butyrate],> 90 µM

# Same assay, conditions: rat, gh3-tre-luc cells, AC50 (uM) modified / 1000, Tox21_110001=Tox21_113045; viability, 1 nM T3 present, 24 h
row,SMILES,CC50 at 24 h
1,CNC(C)Cc1ccccc1OC (centres unmarked) [Methoxyphenamine],> 50 µM

# Same assay, conditions: rat, gh3-tre-luc cells, AC50 (uM) modified / 1000, Tox21_110001=Tox21_113078; viability, 1 nM T3 present, 24 h
row,SMILES,CC50 at 24 h
1,CC(C)C[C@H]1C(=O)N2CCC[C@H]2[C@]2(O)O[C@](NC(=O)[C@@H]3C[C@@H]4c5cccc6[nH]cc(c56)C[C@H]4N(C)C3)(C(C)C)C(=O)N12 [Dihydroergocriptine],39.2 µM

# Same assay, conditions: rat, gh3-tre-luc cells, AC50 (uM) modified / 1000, Tox21_110001=Tox21_113339; viability, 1 nM T3 present, 24 h
row,SMILES,CC50 at 24 h
1,CCCCC1C(=O)NC(=O)N(C2CCCCC2)C1=O (centres unmarked) [Bucolome],> 50 µM

# Same assay, conditions: rat, gh3-tre-luc cells, AC50 (uM) modified / 1000, Tox21_110001=Tox21_200909; viability, 1 nM T3 present, 24 h
row,SMILES,CC50 at 24 h
1,"Oc1cccc(Cl)c1Cl [2,3-Dichlorophenol]",> 90 µM

# Same assay, conditions: rat, gh3-tre-luc cells, AC50 (uM) modified / 1000, Tox21_110001=Tox21_201613; viability, 1 nM T3 present, 24 h
row,SMILES,CC50 at 24 h
1,"O=[N+]([O-])c1ccc(Cl)c(Cl)c1 [3,4-Dichloronitrobenzene]",> 90 µM

# Same assay, conditions: rat, gh3-tre-luc cells, AC50 (uM) modified / 1000, Tox21_110001=Tox21_202323; viability, 1 nM T3 present, 24 h
row,SMILES,CC50 at 24 h
1,"c1ccc(NNc2ccccc2)cc1 [1,2-Diphenylhydrazine]",> 90 µM

# Same assay, conditions: rat, gh3-tre-luc cells, AC50 (uM) modified / 1000, Tox21_110001=Tox21_202334; viability, 1 nM T3 present, 24 h
row,SMILES,CC50 at 24 h
1,CCCCN(CCCC)N=O [N-Nitrosodibutylamine],> 90 µM

# Same assay, conditions: rat, gh3-tre-luc cells, AC50 (uM) modified / 1000, Tox21_110001=Tox21_300492; viability, 1 nM T3 present, 24 h
row,SMILES,CC50 at 24 h
1,"c1ccc(NNc2ccccc2)cc1 [1,2-Diphenylhydrazine]",67.9 µM

# Same assay, conditions: rat, gh3-tre-luc cells, AC50 (uM) modified / 1000, Tox21_110001=Tox21_300875; viability, 1 nM T3 present, 24 h
row,SMILES,CC50 at 24 h
1,CCC1CCC(=O)O1 (centres unmarked) [gamma-Caprolactone],> 100 µM

# Same assay, conditions: rat, gh3-tre-luc cells, AC50 (uM) modified / 1000, Tox21_110001=Tox21_301361; viability, 1 nM T3 present, 24 h
row,SMILES,CC50 at 24 h
1,CNC(=O)Oc1ccccc1C(C)C [Isoprocarb],> 90 µM
